Test results reported in ChEMBL document CHEMBL1201862, “PubChem BioAssay data set” (2004).
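Growth conditions: 96-well plates. Treatment: test compound, 48 hours, 5 concentrations. Analysis: linear interpolation between bracketing concentrations; unreached endpoints set to highest concentration. The concentration for 50% growth inhibition is given as GI50.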 Active and inactive are the calls of the source. Rule as the data show it: active = GI50 up to about 1.1 µM and inactive = higher.

Experiments:
Assay in all cases: inhibition of tumour cell growth, NCI panel, 48 h
786-0 = test system: 786-0
A498 = test system: A498
ACHN = test system: ACHN
HCT-116 = test system: HCT-116
HCT-15 = test system: HCT-15
HL-60 = test system: HL-60
LOX IMVI = test system: LOX IMVI
MCF7 = test system: MCF7
MDA-MB-435 = test system: MDA-MB-435
OVCAR-5 = test system: OVCAR-5
PC-3 = test system: PC-3
RXF 393 = test system: RXF 393
SF-539 = test system: SF-539
SK-OV-3 = test system: SK-OV-3
SNB-75 = test system: SNB-75
SR = test system: SR
U-251 = test system: U-251
UACC-257 = test system: UACC-257
UACC-62 = test system: UACC-62
UO-31 = test system: UO-31

SMILES	GI50 (786-0)	GI50 (A498)	GI50 (ACHN)	GI50 (HCT-116)	GI50 (HCT-15)	GI50 (HL-60)	GI50 (LOX IMVI)	GI50 (MCF7)	GI50 (MDA-MB-435)	GI50 (OVCAR-5)	GI50 (PC-3)	GI50 (RXF 393)	GI50 (SF-539)	GI50 (SK-OV-3)	GI50 (SNB-75)	GI50 (SR)	GI50 (U-251)	GI50 (UACC-257)	GI50 (UACC-62)	GI50 (UO-31)
N=C(N)SCCN1CCCCC1	22.3 µM (inactive)	48.6 µM (inactive)	25.6 µM (inactive)	26.7 µM (inactive)	25.6 µM	21.2 µM (inactive)	20.2 µM (inactive)	16.6 µM (inactive)	19.4 µM (inactive)	86.1 µM (inactive)	15.9 µM (inactive)	16.1 µM (inactive)	35.7 µM (inactive)	46.8 µM (inactive)	37.4 µM (inactive)	21 µM (inactive)	19.9 µM (inactive)	18.6 µM (inactive)	23.4 µM (inactive)	25.5 µM (inactive)
Clc1ccc(Cc2nc3cc(Cl)c(Cl)cc3n2CC2CCCN3CCCCC23)cc1Cl (stereo not given)	2.99 µM (inactive)	8.17 µM (inactive)	4.47 µM (inactive)	3.04 µM (inactive)	4.76 µM	2.5 µM (inactive)	2.44 µM (inactive)	2.38 µM (inactive)	3.83 µM (inactive)	3.13 µM (inactive)	4.12 µM (inactive)	7.53 µM (inactive)	1.98 µM (inactive)	1.11 µM (active)	4.53 µM (inactive)	2.78 µM (inactive)	3.86 µM (inactive)	2.88 µM (inactive)	2.28 µM (inactive)	0.335 µM (active)
